Experimental data published in patent US8158681B2, “Nutraceutical and pharmaceutical compositions and use thereof for the treatment, co-treatment or prevention of inflammatory disorders” (DSM IP Assets B.V., priority 2006, dated 2012).

Experiments:
Format in all cases: cell-based, murine
[1] = tested on: nitric oxide (NO) production, RAW264.7; test: Inhibition of nitric oxide production in LPS-stimulated RAW264.7 macrophages (Griess reaction); settings: single compounds, RAW264.7, 1 μg/ml LPS, 24 hours
Protocol: (§1) Pure compounds were assayed in vitro in cellular systems. The inhibition of the synthesis of pro-inflammatory prostaglandins (PG) and of nitric oxide by the extracts or compounds was measured. PGE2 plays a critical role in the inflammation process, while nitric oxide (NO) is a hallmark of inflammation in various chronic inflammatory diseases including various forms of arthritis, gastrointestinal diseases and metabolic syndrome X.
(§2) The effects of extracts or compounds on the inflammatory response were tested in cellular assays using a murine macrophage indicator cell line, RAW264.7. The cells were purchased from ATCC (Manassas, Va., USA) and cultured in DMEM containing streptomycin/penicillin, non-essential amino acids and 10% fetal calf serum (FCS). In order to test a large range of concentration of compounds, cells (˜50′000/well) were seeded into flat-bottomed microtiter plates and cultured for one day. Cells were then starved in complete medium containing 0.25% FCS (D-025). After overnight culture, medium was removed and replaced by 100 μL of D-025 containing the test compounds at twice the final concentration. Subsequently, 100 μL of D-025 containing 2 μg/ml LPS was added (i.e. final LPS concentration of 1 μg/ml) and the cells cultured for 24 hours.
(§3) Compounds were usually tested in a concentration range from 0.2 to 50 μM in two-fold dilution steps. Extracts were tested in a range from 0.2-50 mg/L. All treatments were done in duplicates and several experimental series were done for each treatment. Concentrations of nitrite, which was rapidly formed from nitric oxide released by cells, were determined by the Griess reaction using sodium nitrite as standard. Briefly, 50 μl of supernatant was mixed with Griess reagent 1 (25 μL) and Griess reagent 2 (25 μL), centrifuged and the optical density at 540 nm determined. PGE2 secreted into the cell culture medium was determined by EIA obtained from Cayman Chemicals (Ann Harbor, Wis., USA) and used according to the manufacturer's instructions. All determinations were done in duplicates and at various dilutions of the culture supernatant. IC50 values were calculated using a […] least-square fitting equation [y=A+((B−A)/(1+((C−x)^D))] for best-fit curves (Excel fit software program).

[2] = tested on: PGE2 production, RAW264.7; test: Inhibition of PGE2 production in LPS-stimulated RAW264.7 macrophages (EIA); settings: single compounds, RAW264.7, 1 μg/ml LPS, 24 hours
Protocol: as §1, §2, §3

[3] = tested on: interleukin-10 (IL-10) mRNA; test: Expression of inflammatory genes in stimulated RAW 264.7 cells, quantitative RT-PCR: IL-10; settings: RAW 264.7, 4 hours
Protocol: (§4) The effect of the compounds has also been evaluated on the level of the expression of genes that are involved in the inflammatory response. These comprise genes of the prostaglandin synthesis pathway, cytokines and chemokines or inducible nitric oxide synthase (iNOS). RAW 264.7 cells were stimulated in the presence of different concentrations of substances. After 4 hours, RNA was extracted and the expression of genes determined by quantitative RT-PCR as described (Richard, N., Porath, D., Radspieler, A. and Schwager, J. Effects of resveratrol, piceatannol, tri-acetoxystilbene, and genistein on the inflammatory response of human peripheral blood leukocytes. Mol Nutr Food Res 2005. 49: 431-442). […] Collectively, the results reveal significant effects of the compounds on the expression of distinct genes involved in the inflammatory response.

[4] = tested on: inducible nitric oxide synthase (iNOS) mRNA; test: Expression of inflammatory genes in stimulated RAW 264.7 cells, quantitative RT-PCR: iNOS; settings: RAW 264.7, 4 hours
Protocol: as §4

[5] = tested on: IL-1 alpha mRNA; test: Expression of inflammatory genes in stimulated RAW 264.7 cells, quantitative RT-PCR: IL-1 alpha; settings: 25 μM/L Amorfrutin A; RAW 264.7, 4 hours
Protocol: as §4

[6] = tested on: matrix metalloproteinase 9 (MMP-9) mRNA; test: Expression of inflammatory genes in stimulated RAW 264.7 cells, quantitative RT-PCR: MMP-9; settings: RAW 264.7, 4 hours
Protocol: as §4

## C=C(C)C(O)Cc1c(OC)cc(CCc2ccccc2)c(C(=O)O)c1O (stereo not shown) [2-hydroxy-4-methoxy-3-(2-hydroxy-3-methyl-3-butenyl)-6-(2-phenylethyl)-benzoic acid]
[1]; Mus musculus
  IC50: 14.6 ± 0.3 µM
[2]; Mus musculus
  IC50: 40.7 ± 11.8 µM

## C=C(C)C(O)Cc1c(OC)cc(CCCCC)c(C(=O)O)c1O (stereo not shown) [2-hydroxy-4-methoxy-3-(2-hydroxy-3-methyl-3-butenyl)-6-pentyl-benzoic acid]
[1]; Mus musculus
  IC50: 22.1 ± 1.6 µM
[2]; Mus musculus
  IC50: 18.9 ± 1.6 µM

## CCCCCc1cc(OC)c(CC=C(C)C)c(O)c1C(=O)O [2-hydroxy-4-methoxy-3-(3-methyl-2-butenyl)-6-pentyl-benzoic acid]
[1]; Mus musculus
  IC50: 10.9 ± 1.2 µM
[2]; Mus musculus
  IC50: > 50 µM

## COc1cc(CCc2ccccc2)c(C(=O)O)c(O)c1CC=C(C)C [Amorfrutin A (III), Amorfrutin A]
[1]
  IC50: 7.1 ± 0.1 µM
[2]
  IC50: 74.1 ± 12.1 µM
[3]; 25 μM/L Amorfrutin A
  % expression of IL-10 mRNA relative to cells stimulated with LPS only (=100%): 22%
[3]; RT-PCR
  Effect on IL-10 gene expression (in words): significantly reduced
[4]; 25 μM/L Amorfrutin A
  % expression of iNOS mRNA relative to cells stimulated with LPS only (=100%): 52%
[4]; RT-PCR
  Effect on iNOS gene expression (in words): significantly reduced
[5]
  % expression of IL-1 alpha mRNA relative to cells stimulated with LPS only (=100%): 94%
[6]; 25 μM/L Amorfrutin A
  % expression of MMP-9 mRNA relative to cells stimulated with LPS only (=100%): 69%
[6]; RT-PCR
  Effect on MMP-9 gene expression (in words): significantly reduced

## COc1cc(CCc2ccccc2)c(C(=O)O)c(O)c1C/C=C(\C)CCC=C(C)C [Amorfrutin B (II), Amorfrutin B]
[1]
  IC50: 22.8 ± 4.1 µM
[2]
  IC50: > 100 µM

## CCCCCc1cc(OC)c(C/C=C(\C)CCC=C(C)C)c(O)c1C(=O)O [Cannabigerolic acid monomethyl ether]
[1]
  IC50: 31.3 ± 2.5 µM
[2]
  IC50: 17.9 ± 11.6 µM
